In PubChem BioAssay (NCI):
“And” between values parts separate entries of the source, which are not always exact repeats. Identical values can stand only once.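 How tested: cells in 96-well plates exposed to compound for 48 hours at five concentrations. GI50 is the concentration that inhibits growth by half. TGI marks complete inhibition of growth.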 Where a SMILES comes first, the peptide text is derived from it. The star is where a group is joined. Boc = CC(C)(C)OC(=O)*

Assays:
Experiment in all cases: inhibition of tumour cell growth, NCI panel, 48 h
[1] = test system: COLO 205 colon
[2] = test system: DU-145 prostate
[3] = test system: HCC-2998 colon
[4] = test system: HT29 colon
[5] = test system: MDA-MB-435
[6] = test system: MOLT-4 leukemia
[7] = test system: SF-295 CNS
[8] = test system: SNB-19 CNS
[9] = test system: U251 CNS
[10] = test system: UACC-62 melanoma
[11] = test system: PC-3 prostate
[12] = test system: SK-MEL-2 melanoma

SMILES	TGI [1]	TGI [2]	TGI [3] [µM]	TGI [4] [µM]	TGI [5]	TGI [6] [µM]	TGI [7]	TGI [8] [µM]	TGI [9] [µM]	TGI [10] [µM]	TGI [11] [µM]	TGI [12] [µM]	GI50 [3]	GI50 [4]	GI50 [5]	GI50 [11]	GI50 [7]	GI50 [12]
COC(=O)CC[N+]1([O-])CC1	> 100 µM	> 100 µM	> 100	> 100	> 100 µM	> 100	> 100 µM	> 100	> 100	> 100	–	–	–	–	–	–	–	–
CC(=O)N1c2ccccc2C2=NN=C(N(C)C)SC21 (centres undefined)	12.9 µM	7.45 µM	12.5	20.5	31.3 µM	> 100	8.16 µM	23.5	10.8	–	18	6.36	–	–	–	–	–	–
CC1=CC(=C(c2ccc(N)c(C)c2)c2ccc(N)c(C)c2)C=CC1=N	5.87 µM	–	14.4	15.6	–	30.9	11.7 µM	15.8	12.8	10.2	–	7.48	–	–	–	–	–	–
CCC(C)C1=C(O)[N+]2([O-])Oc3ccc(-c4c(O)c(O)c(-c5ccc(O)cc5)c(OC(C)=O)c4OC(C)=O)cc3OC2(C(C)CC)C(=O)N1O (centres undefined)	> 50 µM	> 50 µM	–	> 50	> 50 µM	> 50	> 50 µM	> 50	> 50	> 50	> 50	> 50	–	–	–	–	–	–
COc1cc2c(cc1C)NC(=O)/C2=C\c1cccnc1	39.8 µM	54.3 µM	21.6	> 100	50.1 µM	60.1	35 µM	40.4	> 100	–	> 100	76.1	–	–	–	–	–	–
CCOC(=O)/C(=C\NC[C@@H](C)O)c1nc2ccccc2[nH]1	> 100 µM	> 100 µM	> 100	> 100	> 100 µM	–	> 100 µM	> 100	–	> 100	–	–	–	–	–	–	–	–
CC[N+](C)(C)c1ccc(C(=C2C=CC(=[N+](C)C)C=C2)c2ccc(N(C)C)cc2)cc1	> 100 µM	–	32.3	30.6	–	46.1	70.1 µM	–	14	29.7	–	56.8	–	–	–	–	–	–
C=CCN1C(=O)/C(=C/c2ccccc2)N=C1SC/C=C/C	> 100 µM	> 100 µM	76.6	–	> 100 µM	–	> 100 µM	> 100	> 100	> 100	55.8	63	–	–	–	–	–	–
Nc1ccc2c(c1)N(C(=O)CCCC(=O)N1CC(CCl)c3ccc(N)cc31)CC2CCl (centres undefined)	2.1 µM	> 21 µM	> 50	> 13.5	3.17 µM	> 50	> 50 µM	11.3	> 26.2	–	16.4	1.43	–	–	–	–	–	–
COC(=O)CC(SCCO)SCCO	> 100 µM	> 100 µM	> 100	> 100	> 100 µM	> 100	> 100 µM	> 100	–	> 100	> 100	–	–	–	–	–	–	–
O=S(=O)(O)c1cccc2ccc(O)c(N=Nc3ccc(S(=O)(=O)c4ccc(N=Nc5c(O)ccc6cccc(S(=O)(=O)O)c56)cc4)cc3)c12	> 100 µM	> 100 µM	–	> 100	> 100 µM	> 100	> 100 µM	> 100	> 100	> 100	> 100	> 100	–	–	–	–	–	–
COc1ccc(-c2cc(-c3ccccc3)c3c(n2)-c2ccccc2NC(=O)C3)cc1	> 100 µM	> 100 µM	> 100	> 100	> 100 µM	–	> 100 µM	> 100	> 100	> 100	> 100	> 100	–	–	–	–	–	–
COC(=O)C1=C(O)C(C(=O)OC)[C@]2(O)[C@H](C(=O)OC)[C@H]1C[C@@H](c1ccc(O)cc1)[C@H]2C(=O)OC (some centres undefined)	> 100 µM	71.6 µM	46.5	> 100	> 100 µM	> 100	58.8 µM	> 100	50.1	> 100	76.4	–	–	–	–	–	–	–
C(=C\c1ccccc1)/Cn1nc(-c2ccccc2)nc1-c1cnccn1	> 100 µM	> 100 µM	> 100	> 100	> 100 µM	> 100	> 100 µM	> 100	> 100	> 100	> 100	–	–	–	–	–	–	–
N#Cc1cccc(Nc2ccccc2SSc2ccccc2Nc2cccc(C#N)c2)c1	–	> 21.5 µM	> 21.5	15.3	18.2 µM	21.4	> 21.5 µM	19.5	12	> 21.5	13.9	–	–	–	–	–	–	–
COc1ccc(-c2c(C#N)c(N)n(C3OCC(O)C(O)C3O)c(=S)c2C#N)cc1 (centres undefined)	–	> 100 µM	> 100	> 100	> 100 µM	> 100	> 100 µM	> 100	–	> 100	> 100	> 100	–	–	–	–	–	–
COc1cccc2c1C(=O)c1c(O)c3c(c(O)c1C2=O)CC(O)(C(C)=O)CC3OC1CC([N+](C)(C)C)C(O)C(C)O1 (centres undefined)	> 100 µM	–	> 100	> 100	–	56.1	> 100 µM	> 100	> 100	> 100	–	> 100	–	–	–	–	–	–
O=S(=O)(O)c1cc(S(=O)(=O)O)c2c(N=Nc3ccccc3)c(O)ccc2c1	> 100 µM	> 100 µM	–	> 100	> 100 µM	> 100	> 100 µM	> 100	> 100	> 100	> 100	> 100	–	–	–	–	–	–
COc1cc(/C=C2\N=C(c3ccccc3)N(c3ccc(S(=O)(=O)Nc4nccs4)cc3)C2=O)ccc1O	> 100 µM	> 100 µM	–	> 100	> 100 µM	> 100	> 100 µM	> 100	> 100	> 100	> 100	> 100	–	–	–	–	–	–

SMILES	TGI [1]	TGI [2]	TGI [3] [µM]	TGI [4] [µM]	TGI [5]	TGI [6] [µM]	TGI [7]	TGI [8] [µM]	TGI [9] [µM]	TGI [10] [µM]	TGI [11] [µM]	TGI [12] [µM]	GI50 [3]	GI50 [4]	GI50 [5]	GI50 [11]	GI50 [7]	GI50 [12]
O=c1ccc(-c2ccc(-n3ccnc3)cc2)nn1CCO	> 100 µM	> 100 µM	> 100	> 100	> 100 µM	> 100	> 100 µM	> 100	> 100	> 100	> 100	–	–	–	–	–	–	–
CCCCC1=C(C(=O)N2CCOCC2)C2(OCCO2)C1Cl (centres undefined)	54.3 µM	> 100 µM	–	78.6	67.8 µM	> 100	> 100 µM	> 100	> 100	> 100	> 100	51.6	–	–	–	–	–	–
C=C[C@@]1(C)CC(=O)[C@]2(O)[C@@]3(C)[C@@H](OC(C)=O)CCC(C)(C)[C@@H]3[C@H](O)[C@H](OC(C)=O)[C@@]2(C)O1	–	> 100 µM	> 100	> 100	> 100 µM	> 100	> 100 µM	> 100	> 100	> 100	> 100	> 100	–	–	–	–	–	–
CCCC[P+](CCCC)(CCCC)C(C(=O)OC)C(C(=O)OC)=C1SC(C(=O)OC)=C(C(=O)OC)S1 (centres undefined)	> 100 µM	> 100 µM	–	> 100	> 100 µM	> 100	> 100 µM	> 100	> 100	> 100	> 100	> 100	–	–	–	–	–	–
CC1=NN(c2cccc(Cl)c2)C(=N/c2nc3ccccc3s2)/C1=C\c1ccccc1O	–	> 100 µM	45.4	97.8	> 100 µM	87.4	86.2 µM	–	61	–	48.7	40.3	–	–	–	–	–	–
c1ccc2c(c1)Sc1ccccc1N2CCCN1c2ccccc2Sc2ccccc21	> 100 µM	> 100 µM	> 100	> 100	> 100 µM	> 100	> 100 µM	> 100	> 100	> 100	> 100	–	–	–	–	–	–	–
O=c1cnn(C/C=C/CP(=O)(O)O)c(=O)[nH]1	> 100 µM	> 100 µM	> 100	–	> 100 µM	–	–	> 100	> 100	–	> 100	> 100	–	–	–	–	–	–
O=c1[nH]nc(Cc2ccccc2)n1N=C1CCCCC1	> 100 µM	> 100 µM	–	> 100	> 100 µM	> 100	> 100 µM	> 100	> 100	> 100	> 100	> 100	–	–	–	–	–	–
CC(C)OP(=O)(OC(C)C)c1nn(-c2ccc([N+](=O)[O-])cc2)c(=N)s1	> 100 µM	–	> 100	> 100	–	> 100	> 100 µM	> 100	> 100	> 100	–	–	–	–	–	–	–	–
CC(SC(=S)N1CCCC1)C(=O)Nc1nnc(-c2ccc(Cl)cc2)o1 (centres undefined)	> 100 µM	> 100 µM	> 100	51	> 100 µM	–	–	> 100	> 100	> 100	> 100	> 100	–	–	–	–	–	–
CC[C@@]1(O)C(=O)OCc2c1cc1n(c2=O)Cc2c-1nc1ccccc1c2C=Nc1ccc(N[C@@H]2c3cc4c(cc3[C@@H](c3cc(OC)c(O)c(OC)c3)[C@H]3C(=O)OC[C@@H]32)OCO4)cc1	> 100 µM and 35.8 µM	0.18 µM and 0.028 µM	–	> 100	12.5 µM and > 100 µM	> 100	8.02 µM and 15.9 µM	> 100	> 48.8	–	> 100	–	369 nM and 131 nM	364 nM and 104 nM	295 nM and 188 nM	822 nM and 86.4 nM	61.9 nM and 50.3 nM	2500 nM and 535 nM
c1ccc2nc3c(nc2c1)sc1nc2ccccc2n13	> 100 µM	> 100 µM	> 100	> 100	> 100 µM	> 100	> 100 µM	> 100	> 100	> 100	> 100	–	–	–	–	–	–	–
CC1CC/C(=C\c2ccc(Cl)cc2)C(=O)/C1=C\c1ccc(Cl)cc1 (centres undefined)	73 µM	> 100 µM	–	> 100	> 100 µM	–	–	–	> 100	57.3	> 100	37.9	–	–	–	–	–	–
COC(=O)C(Cc1c[nH]c2ccccc12)NC(=O)C(Cc1c[nH]c2ccccc12)NC(=O)C(Cc1c[nH]c2ccccc12)NC(=O)C(Cc1c[nH]c2ccccc12)NC(=O)C(Cc1c[nH]c2ccccc12)NC(=O)OC(C)(C)C (centres undefined) (Boc-WWWWW-OMe; configuration not given here)	–	> 100 µM	> 100	> 100	> 100 µM	> 100	–	> 100	> 100	> 100	> 100	> 100	–	–	–	–	–	–
COc1nc(N)nc2c1n(C)c[n+]2C	> 100 µM	> 100 µM	–	> 100	> 100 µM	> 100	> 100 µM	> 100	> 100	> 100	> 100	> 100	–	–	–	–	–	–
Cc1ccc(/C(O)=C/c2nc3ccccc3nc2NC23CC4CC(CC(C4)C2)C3)cc1	> 10 µM	> 10 µM	> 10	> 10	> 10 µM	> 10	> 10 µM	> 10	> 10	> 10	> 10	–	–	–	–	–	–	–
CC(C)/C(Cl)=N/OC(NC(=O)Nc1ccc(Cl)c(Cl)c1)(C(F)(F)F)C(F)(F)F	9.27 µM	31.9 µM	36	53.7	33.8 µM	12	38.5 µM	41	33.2	37.2	27.3	–	–	–	–	–	–	–
CCOC(=O)c1nc2cc(F)c(F)cc2nc1NCc1cc(OC)c(OC)c(OC)c1	> 100 µM	> 100 µM	–	> 100	> 100 µM	> 100	> 100 µM	> 100	> 100	> 100	> 100	> 100	–	–	–	–	–	–
COc1ccc(/C=C/C(=O)c2cccc(C(=O)/C=C/c3ccc(OC)c(OC)c3)n2)cc1OC	> 100 µM	> 100 µM	> 100	31.6	> 100 µM	–	> 100 µM	99.1	> 55.7	> 57.4	> 100	> 100	–	–	–	–	–	–
